Results reported in patent US20150259294A1, “METHOD OF PLANT GROWTH PROMOTION USING CARBOXAMIDE DERIVATIVES” (BAYER CROPSCIENCE AG, priority 2012, published 2015).

Experiments:
[1] = system: winter wheat variety Dekan; assay: Foliar application field trial Laacherhof: yield of winter wheat; assay type: in vivo; conditions: 50 g a.i./ha, sprayed threefold at BBCH 31, 39 and 69, 100EC formulation with adjuvant; for Grain Yield (dt/ha): untreated control 86.25
Method: (§1) The field trial in winter wheat was conducted in the experimental station “Laacherhof” in Germany in spring/summer 2012.
(§2) Seeds of the winter wheat variety “Dekan” were planted on Oct. 17, 2011. Fertilization, herbicide- and plant growth regulator applications were carried out according to the local agricultural practice. Additionally, a cover spray with “Pronto Plus” was carried out at BBCH-growth stage 51 in order to keep brown rust (Puccinia triticina) out of the field trial (trial under pathogen-free conditions). The trial was conducted with 3 replicates and the replicates 2 and 3 were randomized. The plot size was 8.8 m^2.
(§3) Compounds A5 (N-(5-chloro-2-isopropylbenzyl)-N-cyclopropyl-3-(difluoromethyl)-5-fluoro-1-methyl-1H-pyrazole-4-carboxamide), A7 (N-cyclopropyl-3-(difluoromethyl)-5-fluoro-N-(5-fluoro-2-isopropylbenzyl)-1-methyl-1H-pyrazole-4-carboxamide), A12 (N-cyclopropyl-3-(difluoromethyl)-5-fluoro-N-(2-isopropyl-5-methylbenzyl)-1-methyl-1H-pyrazole-4-carboxamide) and A10 (N-cyclopropyl-3-(difluoromethyl)-5-fluoro-N-(2-fluoro-6-isopropylbenzyl)-1-methyl-1H-pyrazole-4-carboxamide) were sprayed threefold at BBCH-growth stages 31, 39 and 69 with an use rate of 50 g a.i./ha. All compounds were applied as 100EC formulation adding an adjuvant.
The winter wheat was harvested on Aug. 3, 2012.

barley leave discs = assay: Chlorophyll preservation bioassay in barley leave discs; conditions: barley leaves at 3 dpt vs control at 0 dpt
Method: (§4) To confirm the greening effect of compounds of formula (I) according to the invention observed in field trials, a simple bioassay was set up using wheat and barley. Discs of 1 cm of diameter were cut within leaves collected from 4 weeks old plants and deep at room temperature in water for 1 hour to allow ethylene produced after wound injury to dissipate. Control samples were produced dipping leave discs for 15 min in a solution of 5% DMSO-10% acetone-0.005% tween80 (bioassay formulation), immediately frozen (control 0 day post treatment-dpt) or deposited on Whatmann filter paper soaked by the bioassay formulation, in Petri dishes, […] Leaves discs treated with test compound were processed in the same way. In this case, leave discs were deep for 15 minutes in test compound solution and left to incubate on filter paper soaked with the corresponding test solution. Compounds of formula (I) according to the invention were tested in EC100 formulation unless otherwise specified; Other SDHI fungicides (Fluxapyroxad, Isopyrazam and Hambra) were tested in their respective field formulations.
(§5) Leave discs were frozen in liquid nitrogen and ground prior to chlorophyll extraction with 1 mL of an acetone-water (80-20 vol/vol) solution and chlorophyll concentration evaluation at 663 nm. Percentages of chlorophyll content in 3 or 4 dpt controls and corresponding treated samples were reported to the chlorophyll content measured in 0 dpt controls.

[2] = system: winter wheat variety Dekan; assay: Foliar application field trial Laacherhof: greening effect in winter wheat; assay type: in vivo; conditions: 50 g a.i./ha, sprayed threefold at BBCH 31, 39 and 69; percentage of the color green; untreated control 21.7
Method: as §1, §2, §3
The greening effect of the single treatments was evaluated on Jul. 6, 2012.

wheat leave discs = assay: Chlorophyll preservation bioassay in wheat leave discs; conditions: for Chlorophyll content (%): wheat leave discs at 4 dpt vs control at 0 dpt; for colour of leave discs at the end of the experiment: wheat and barley leave discs, 3 or 4 dpt in the dark
Method: as §4, §5

[3] = formula (I) compounds in EC100 formulation, other SDHI in field formulations

SMILES | Grain Yield (% of Untreated Control) [1] | Grain Yield (dt/ha) [1] | Chlorophyll content (%) (barley leave discs; [3]) | Greening Effect (%) [2] | Chlorophyll content (%) (wheat leave discs; [3]) | colour of leave discs at the end of the experiment (wheat leave discs) | Chlorophyll content (%) (barley leave discs; tested in EC50 formulation) | Chlorophyll content (%) (wheat leave discs; tested in EC50 formulation)
Cc1ccc(C(C)C)c(CN(C(=O)c2c(C(F)F)nn(C)c2F)C2CC2)c1 [Compound A12, N-cyclopropyl-3-(difluoromethyl)-5-fluoro-N-(2-isopropyl-5-methylbenzyl)-1-methyl-1H-pyrazole-4-carboxamide] | 110% | 94.9 dt/ha | 72% | 53.3% | 88% | – | – | –
Cn1cc(C(=O)Nc2ccccc2-c2cc(F)c(F)c(F)c2)c(C(F)F)n1 [Fluxapyroxad, reference compound] | – | – | 28% | – | 51% | discolored | – | –
Cc1ccc(C(C)(C)C)c(CN(C(=O)c2c(C(F)F)nn(C)c2F)C2CC2)c1 [Compound A14, N-(2-tert-butyl-5-methylbenzyl)-N-cyclopropyl-3-(difluoromethyl)-5-fluoro-1-methyl-1H-pyrazole-4-carboxamide] | – | – | 77% | – | – | – | – | –
CC(C)c1ccc(F)cc1CN(C(=O)c1c(C(F)F)nn(C)c1F)C1CC1 [Compound A7, N-cyclopropyl-3-(difluoromethyl)-5-fluoro-N-(5-fluoro-2-isopropylbenzyl)-1-methyl-1H-pyrazole-4-carboxamide] | 115% | 99.4 dt/ha | – | 36.7% | – | – | 77% | 83%
CC(C)c1cccc(F)c1CN(C(=O)c1c(C(F)F)nn(C)c1F)C1CC1 [Compound A10, N-cyclopropyl-3-(difluoromethyl)-5-fluoro-N-(2-fluoro-6-isopropylbenzyl)-1-methyl-1H-pyrazole-4-carboxamide] | 116% | 99.9 dt/ha | 60% | 50.0% | – | – | – | –
CC(C)c1ccccc1CN(C(=O)c1c(C(F)F)nn(C)c1F)C1CC1 [Compound A1, N-cyclopropyl-3-(difluoromethyl)-5-fluoro-N-(2-isopropylbenzyl)-1-methyl-1H-pyrazole-4-carboxamide] | – | – | – | – | 87% | – | – | –
CC(C)C1C2CCC1c1c(NC(=O)c3cn(C)nc3C(F)F)cccc12 (stereo not shown) [Isopyrazam, reference compound] | – | – | 32% | – | 49% | discolored | – | –
